Test results from patent publication US6645949B1, “Toxicity of boron compounds to certain arthropods” (University of Florida, priority 2000, dated 2003).
“And” between values parts separate entries of the source, which are not always exact repeats. Identical values can stand only once.

Tested on: Diamond Back Moth (DBM; Plutella xylostella)
Assay: Control of diamond back moth and inhibition of egg deposition, cage test with sugar pads
Assay type: in vivo
Settings: 4% in 10% sucrose
Method: On day one, six cages (24″ cube) were set up with five virgin DBM females and five virgin DBM males, one cabbage seedling, and one sugar pad (10% sucrose) in each cage. The sugar solution in three cages also contained 4% sodium tetraborate (4 g+96 ml, w:v water). The virgin adult DBM were obtained by isolating colony pupae individually in vials two days prior. The adults emerged one day prior to day one and on day one. They were provided a 10% sugar solution with or without sodium tetraborate, as soon as they emerged, by placing the vials with cloth bottoms on cotton pads.
The cages were placed in environmental rooms where the temperature was 25-26° C. and the day length was 14 hours.
Sugar pads were a single layer of rolled cotton approximately 8 cm square. Each pad was soaked in the appropriate solution, placed in the bottom of a petri dish (95×15 mm), and the excess water was pressed out. Each pad held about 30 ml of solution.
The cabbage seedlings were in Descn. No. 12 plastic pots. The surface of the soil was covered with a thin layer of Plaster of Paris.
On each of days two, three, four, five, and six, the sugar pads and plants were changed (once) between 1:00 p.m. and 5:00 p.m.

[1] = Day 7, cages 1-3, one cage per cell
[2] = Total of Days 2-7, cages 1-3, one cage per cell
[3] = Total of Days 2-7 and of 3 cages
[4] = relative to sugar control, Days 2-7

O=BOB(O)OB(O)OB=O [Sodium tetraborate, sodium tetraborate]
Percent Hatch, Average (Average of the 3 cages, Days 2-7): 66.4% | Number of Eggs, Average (Average per cage over Days 2-7): 354.7 | Number of Larvae, Average (Average per cage over Days 2-7): 235.3 | Number of Dead Females (Day 2, Total of 3 cages): 0 | Number of Dead Males (Day 2, Total of 3 cages): 0 | Number of Eggs (Day 2, Total of 3 cages): 202 | Number of Larvae (Day 2, Total of 3 cages): 99 | Percent Hatch (Day 2, Total): 44.8% | Number of Dead Females (Day 2, cages 1-3, five females per cage): 0 | Number of Dead Males (Day 2, cages 1-3, five males per cage): 0 | Percent Hatch (Day 2, cages 1-3, one cage per cell): 40.9% and 58.2% and 35.4% | Number of Dead Females (Day 3, Total of 3 cages): 1 | Number of Dead Males (Day 3, Total of 3 cages): 0 | Number of Eggs (Day 3, Total of 3 cages): 499 | Number of Larvae (Day 3, Total of 3 cages): 388 | Percent Hatch (Day 3, Total): 79.9% | Number of Dead Males (Day 3, cages 1-3, five males per cage): 0 | Percent Hatch (Day 3, cages 1-3, one cage per cell): 73.7% and 74.2% and 91.7% | Number of Dead Females (Day 4, Total of 3 cages): 1 | Number of Dead Males (Day 4, Total of 3 cages): 0 | Number of Eggs (Day 4, Total of 3 cages): 185 | Number of Larvae (Day 4, Total of 3 cages): 113 | Percent Hatch (Day 4, Total): 57.0% | Number of Dead Males (Day 4, cages 1-3, five males per cage): 0 | Percent Hatch (Day 4, cages 1-3, one cage per cell): 47.5% and 52.2% and 71.3% | Number of Dead Females (Day 5, Total of 3 cages): 1 | Number of Dead Males (Day 5, Total of 3 cages): 2 | Number of Eggs (Day 5, Total of 3 cages): 119 | Number of Larvae (Day 5, Total of 3 cages): 70 | Percent Hatch (Day 5, Total): 54.3% | Number of Dead Females (Day 6, Total of 3 cages): 3 | Number of Dead Males (Day 6, Total of 3 cages): 4 | Number of Eggs (Day 6, Total of 3 cages): 58 | Number of Larvae (Day 6, Total of 3 cages): 36 | Percent Hatch (Day 6, Total): 63.3% | Number of Dead Females (Day 6, cages 1-3, five females per cage): 1 | Number of Dead Females (Day 7, Total of 3 cages): 6 | Number of Dead Males (Day 7, Total of 3 cages): 4 | Number of Eggs (Day 7, Total of 3 cages): 1 | Number of Larvae (Day 7, Total of 3 cages): 0 | Number of Live Females (Day 7, Total of 3 cages): 2 | Number of Live Males (Day 7, Total of 3 cages): 2 | Percent Hatch (Day 7, Total): 0.0% | Number of Dead Males (Day 7, cages 1-3, five males per cage): 2 and 1 | Number of Larvae [1]: 0 | Percent Hatch [1]: 0.0% | Percent Hatch, Total (Days 2-7 together, cages 1-3, one cage per cell): 60.9% and 65.5% and 72.9% | Number of Eggs, Total [2]: 419 and 261 and 384 | Number of Larvae, Total [2]: 255 and 171 and 280 | Number of Eggs, Total [3]: 1064 | Number of Larvae, Total [3]: 706 | Number of Eggs, % of sugar [4]: 57.1% | Number of Larvae, % of sugar [4]: 64.2%
